Results as given in PubChem BioAssay AID1963432 (Molecular Pharmacology Branch, DTP, NCI, 2024).
pIC50: −log10 of the molar value.

Tested on: SYO-1 complex spheroid growth, percent test/control
Assay: Anticancer human tumor SYO-1 cell line growth inhibition [Asc];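 also: compound exposure lasted 7 days after spheroids grew 3 days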;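 as to viability, T/C: 100% = DMSO vehicle control viability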
Settings: for pIC50: curve of first compound; for viability, T/C: stronger effect = lower value
Outline: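 Stromal components (HUVEC and hMSC) are co-assembled with the cancer cells into multicellular spheroids. Drugs are then added singly or paired, at concentrations falling by half-log increments from a clinically achievable maximum, capped at 10 microM without known Cmax.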

Compound `C=C(F)C(=O)N1CCN(c2nc(OCC3CCCN3C)nc3c2CCN(c2cccc4cccc(Cl)c24)C3)CC1CC#N` (configuration not stated) + CCN1C(C(=O)NC23CCC(C(=O)O)(CC2)CC3)C(c2cccc(Cl)c2F)C2(C(=O)Nc3cc(Cl)ccc32)C12CCCCC2 has a pIC50 (second compound 0.00949 µM) of 5.30, a pIC50 (second compound 0.03 µM) of 5.73 and a pIC50 (second compound 0.0949 µM) of 5.79. For the same compound, the pIC50 (second compound 0.3 µM) was over 7.50, the pIC50 (second compound 0.949 µM) was over 7.50 and the pIC50 (second compound 3 µM) was over 7.50. The viability, T/C (second compound 0.00949 µM, first compound 0.0316 µM) was 101%, the viability, T/C (second compound 0.00949 µM, first compound 0.1 µM) was 99.9% and the viability, T/C (second compound 0.00949 µM, first compound 0.316 µM) was 101%. The viability, T/C (second compound 0.00949 µM, first compound 1 µM) was 109%, the viability, T/C (second compound 0.00949 µM, first compound 3.16 µM) was 83.3% and the viability, T/C (second compound 0.00949 µM, first compound 10 µM) was 0.4%. For the same compound, the viability, T/C (second compound 0.03 µM, first compound 0.0316 µM) was 96.9%, the viability, T/C (second compound 0.03 µM, first compound 0.1 µM) was 95.3% and the viability, T/C (second compound 0.03 µM, first compound 0.316 µM) was 101%. It also gave a viability, T/C (second compound 0.03 µM, first compound 1 µM) of 111%, a viability, T/C (second compound 0.03 µM, first compound 3.16 µM) of 6.35% and a viability, T/C (second compound 0.03 µM, first compound 10 µM) of 0.68%. It also gave a viability, T/C (second compound 0.0949 µM, first compound 0.0316 µM) of 87.1%, a viability, T/C (second compound 0.0949 µM, first compound 0.1 µM) of 81% and a viability, T/C (second compound 0.0949 µM, first compound 0.316 µM) of 83.8%. It also gave a viability, T/C (second compound 0.0949 µM, first compound 1 µM) of 88.2%, a viability, T/C (second compound 0.0949 µM, first compound 3.16 µM) of 1.01% and a viability, T/C (second compound 0.0949 µM, first compound 10 µM) of 0.26%. For the same compound, the viability, T/C (second compound 0.3 µM, first compound 0.0316 µM) was 31.3%, the viability, T/C (second compound 0.3 µM, first compound 0.1 µM) was 27.9% and the viability, T/C (second compound 0.3 µM, first compound 0.316 µM) was 22.7%. It also gave a viability, T/C (second compound 0.3 µM, first compound 1 µM) of 23.9%, a viability, T/C (second compound 0.3 µM, first compound 3.16 µM) of 1.47% and a viability, T/C (second compound 0.3 µM, first compound 10 µM) of 0.37%. The viability, T/C (second compound 0.949 µM, first compound 0.0316 µM) was 4.04%, the viability, T/C (second compound 0.949 µM, first compound 0.1 µM) was 3.25% and the viability, T/C (second compound 0.949 µM, first compound 0.316 µM) was 2.38%. For the same compound, the viability, T/C (second compound 0.949 µM, first compound 1 µM) was 1.49%, the viability, T/C (second compound 0.949 µM, first compound 3.16 µM) was 0.82% and the viability, T/C (second compound 0.949 µM, first compound 10 µM) was 0.26%. It also gave a viability, T/C (second compound 3 µM, first compound 0.0316 µM) of 2.61%, a viability, T/C (second compound 3 µM, first compound 0.1 µM) of 1.39% and a viability, T/C (second compound 3 µM, first compound 0.316 µM) of 1.16%. The viability, T/C (second compound 3 µM, first compound 1 µM) was 0.97%, the viability, T/C (second compound 3 µM, first compound 3.16 µM) was 0.49% and the viability, T/C (second compound 3 µM, first compound 10 µM) was 0.4%.
